Measured values from patent publication US20110070232A1, “Combination Therapy with an Antitumor Alkaloid” (Pharma Mar, S.A., priority 2008, published 2011).
Like-named read-outs stand apart in the source and are kept apart here.

What was measured:
MRI-H-254 tumors = assay type: in vivo, mice
Method: Female athymic nude mice (Harlan Sprague Dawley, Madison, Wis.) were utilized for all experiments. Animals were housed in ventilated rack caging with food and water ad libitum. The mice were acclimated for at least 5 days prior to tumor implantation with tumor fragments.
Treatments were initiated on DPI 20.
(§1) Tumor size measurements were recorded twice weekly from the treatment initiation until the termination of the study.
(§2) Mean, standard deviation and standard error of the mean were determined for tumor volume for all animal groups at all assessments. Student's t test was performed on tumor volumes at each measurement day, including at the end of the study, to determine whether there were any statistically significant differences between combination treatment groups and single monotherapy treatment groups.

Hs746T tumors = assay type: in vivo, mice
Method: Female athymic nude mice (Harlan Sprague Dawley, Madison, Wis.) were utilized for all experiments. Animals were housed in ventilated rack caging with food and water ad libitum. The mice were acclimated for at least 5 days prior to tumor implantation with a tumor cell suspension.
The tumor model used in these studies was Hs746T cell line, which was obtained from the ATCC (Manassas, Va.).
Treatments were initiated on DPI 14.
as §1, §2

[1] = PM00104 0.90 IV, docetaxel 16 IP, oxaliplatin 8 IP mg/kg/day (G2, G3, G5, G7, G9), DPI 14, 21, 28

Compound: COc1c(C)cc2c(c1O)[C@@H]1[C@@H]3Cc4c(OC(C)=O)c(C)c5c(c4[C@H](CNC(=O)/C=C/c4cccc(C(F)(F)F)c4)N3[C@@H](O)[C@H](C2)N1C)OCO5 [PM00104]
- % Inhibition (MRI-H-254 tumors; day 33, PM00104 0.9 and docetaxel 8 mg/kg/day): 45.8%
- % Inhibition (MRI-H-254 tumors; day 33, PM00104 0.9 and docetaxel 16 mg/kg/day): 45.8%
- % Inhibition (MRI-H-254 tumors; day 33, PM00104 0.9 and oxaliplatin 4 mg/kg/day): 45.8%
- % Inhibition (MRI-H-254 tumors; day 33, PM00104 0.9 and oxaliplatin 8 mg/kg/day): 45.8%
- % Inhibition (MRI-H-254 tumors; day 36, PM00104 0.9 and docetaxel 8 mg/kg/day): 50.0%
- % Inhibition (MRI-H-254 tumors; day 36, PM00104 0.9 and docetaxel 16 mg/kg/day): 50.0%
- % Inhibition (MRI-H-254 tumors; day 36, PM00104 0.9 and oxaliplatin 4 mg/kg/day): 50.0%
- % Inhibition (MRI-H-254 tumors; day 36, PM00104 0.9 and oxaliplatin 8 mg/kg/day): 50.0%
- % Inhibition (MRI-H-254 tumors; day 40, PM00104 0.9 and docetaxel 8 mg/kg/day): 63.9%
- % Inhibition (MRI-H-254 tumors; day 40, PM00104 0.9 and docetaxel 16 mg/kg/day): 63.9%
- % Inhibition (MRI-H-254 tumors; day 40, PM00104 0.9 and oxaliplatin 4 mg/kg/day): 63.9%
- % Inhibition (MRI-H-254 tumors; day 40, PM00104 0.9 and oxaliplatin 8 mg/kg/day): 63.9%
- % Inhibition (MRI-H-254 tumors; day 48, PM00104 0.9 and docetaxel 8 mg/kg/day): 73.1%
- % Inhibition (MRI-H-254 tumors; day 48, PM00104 0.9 and docetaxel 16 mg/kg/day): 73.1%
- % Inhibition (MRI-H-254 tumors; day 48, PM00104 0.9 and oxaliplatin 4 mg/kg/day): 73.1%
- % Inhibition (MRI-H-254 tumors; day 48, PM00104 0.9 and oxaliplatin 8 mg/kg/day): 73.1%
- % T/C on day 14 (Hs746T tumors; [1]): 99.9%
- % T/C on day 19 (Hs746T tumors; [1]): 54.9%
- % T/C on day 22 (Hs746T tumors; [1]): 40.8%
- % T/C on day 26 (Hs746T tumors; [1]): 39.5%
- % T/C on day 29 (Hs746T tumors; [1]): 30.4%
- % T/C on day 32 (Hs746T tumors; [1]): 47.6%
- % T/C on day 39 (Hs746T tumors; [1]): 80.3%
- % Inhibition (Hs746T tumors; day 14, PM00104 0.9 and docetaxel 8 mg/kg/day): 0.1%
- % Inhibition (Hs746T tumors; day 14, PM00104 0.9 and docetaxel 16 mg/kg/day): 0.1%
- % Inhibition (Hs746T tumors; day 14, PM00104 0.9 and oxaliplatin 4 mg/kg/day): 0.1%
- % Inhibition (Hs746T tumors; day 14, PM00104 0.9 and oxaliplatin 8 mg/kg/day): 0.1%
- % Inhibition (Hs746T tumors; day 19, PM00104 0.9 and docetaxel 8 mg/kg/day): 45.1%
- % Inhibition (Hs746T tumors; day 19, PM00104 0.9 and docetaxel 16 mg/kg/day): 45.1%
- % Inhibition (Hs746T tumors; day 19, PM00104 0.9 and oxaliplatin 4 mg/kg/day): 45.1%
- % Inhibition (Hs746T tumors; day 19, PM00104 0.9 and oxaliplatin 8 mg/kg/day): 45.1%
- % Inhibition (Hs746T tumors; day 22, PM00104 0.9 and docetaxel 8 mg/kg/day): 59.2%
- % Inhibition (Hs746T tumors; day 22, PM00104 0.9 and docetaxel 16 mg/kg/day): 59.2%
- % Inhibition (Hs746T tumors; day 22, PM00104 0.9 and oxaliplatin 4 mg/kg/day): 59.2%
- % Inhibition (Hs746T tumors; day 22, PM00104 0.9 and oxaliplatin 8 mg/kg/day): 59.2%
- % Inhibition (Hs746T tumors; day 26, PM00104 0.9 and docetaxel 8 mg/kg/day): 60.5%
- % Inhibition (Hs746T tumors; day 26, PM00104 0.9 and docetaxel 16 mg/kg/day): 60.5%
- % Inhibition (Hs746T tumors; day 26, PM00104 0.9 and oxaliplatin 4 mg/kg/day): 60.5%
- % Inhibition (Hs746T tumors; day 26, PM00104 0.9 and oxaliplatin 8 mg/kg/day): 60.5%
- % Inhibition (Hs746T tumors; day 29, PM00104 0.9 and docetaxel 8 mg/kg/day): 69.6%
- % Inhibition (Hs746T tumors; day 29, PM00104 0.9 and docetaxel 16 mg/kg/day): 69.6%
- % Inhibition (Hs746T tumors; day 29, PM00104 0.9 and oxaliplatin 4 mg/kg/day): 69.6%
- % Inhibition (Hs746T tumors; day 29, PM00104 0.9 and oxaliplatin 8 mg/kg/day): 69.6%
- % Inhibition (Hs746T tumors; day 32, PM00104 0.9 and docetaxel 8 mg/kg/day): 52.4%
- % Inhibition (Hs746T tumors; day 32, PM00104 0.9 and docetaxel 16 mg/kg/day): 52.4%
- % Inhibition (Hs746T tumors; day 32, PM00104 0.9 and oxaliplatin 4 mg/kg/day): 52.4%
- % Inhibition (Hs746T tumors; day 32, PM00104 0.9 and oxaliplatin 8 mg/kg/day): 52.4%
- % Inhibition (Hs746T tumors; day 39, PM00104 0.9 and docetaxel 8 mg/kg/day): 19.7%
- % Inhibition (Hs746T tumors; day 39, PM00104 0.9 and docetaxel 16 mg/kg/day): 19.7%
- % Inhibition (Hs746T tumors; day 39, PM00104 0.9 and oxaliplatin 4 mg/kg/day): 19.7%
- % Inhibition (Hs746T tumors; day 39, PM00104 0.9 and oxaliplatin 8 mg/kg/day): 19.7%
